These results are taken from patent US20050288347A1, “Certain triazole-based compounds, compositions, and uses thereof” (priority 2004, published 2005).

In the experiment the target is protein kinase. Briefly: HTS ATP-utilizing enzyme assay, off-chip mobility-shift format (Caliper HTS 250). Type of experiment: biochemical, human. The note with it: test compound 10 μM; for Kinase: kinase(s) for which the compound exhibits protein kinase inhibitory activity, active = greater than three-sigma from the mean activity of inactive compounds; for protein kinase against which the compound exhibits inhibitory activity (Table 3): active = activity greater than three-sigma from the mean of the predominately inactive population for that enzyme. A digest of the protocol:
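Single-point screen at 10 μM compound in HEPES pH 7.5 buffer with Triton X-100 and BSA, 2.5 h at 20–22 °C. Substrate-to-phosphopeptide ratio measured by off-chip microfluidic mobility shift; EDTA wells as 100% and DMSO wells as 0% control, hits called at three-sigma limits.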

Entries after “also recorded” stand apart in the source; their conditions may differ.

In the case of `O=C(CSc1nnc(-c2ccc([N+](=O)[O-])cc2)[nH]1)c1ccccc1` [2-(5-(4-nitrophenyl)-4H-1,2,4-triazol-3-ylthio)-1-phenylethanone], the Kinase result is listed as “FLT-3; also recorded: GSK3-β; also recorded: AURORA-A”.

As for `O=C(O)CSc1nnc(-c2ccc([N+](=O)[O-])cc2)[nH]1` [2-(5-(4-nitrophenyl)-4H-1,2,4-triazol-3-ylthio)acetic acid], the Kinase result is given as “GSK3-α; also recorded: GSK3-β; also recorded: DYRK2”.

As for `O=C(CSc1nnc(COc2ccc(Cl)cc2)[nH]1)c1ccccc1` [2-(5-((4-chlorophenoxy)methyl)-4H-1,2,4-triazol-3-ylthio)-1-phenylethanone], the Kinase result is given as “GSK3-α; also recorded: FLT-3; also recorded: GSK3-β”.

As to `O=C(O)CSc1nnc(COc2ccc(Cl)cc2)[nH]1` [2-(5-((4-chlorophenoxy)methyl)-4H-1,2,4-triazol-3-ylthio)acetic acid], the Kinase entry is listed as “GSK3-B β; also recorded: GSK3-α”.

In the case of `CCn1c(CNc2ccc(C)cc2)nnc1SCC#N` [2-(5-((p-toluidino)methyl)-4-ethyl-4H-1,2,4-triazol-3-ylthio)acetonitrile], the Kinase result was “PDGFRR-α and CDK1”.

Take `C=C(C)Cn1c(SCC(=O)O)nnc1-c1ccco1` [2-(5-(furan-2-yl)-4-(2-methylallyl)-4H-1,2,4-triazol-3-ylthio)acetic acid]: the Kinase entry is “HCK and CHEK2”.

As for `Cn1c(SCC(=O)N2CCOCC2)nnc1-c1ccco1` [2-(5-(furan-2-yl)-4-methyl-4H-1,2,4-triazol-3-ylthio)-1-morpholinoethanone], the Kinase result was “FYN”.

In the case of `O=C(CSc1nnc(-c2ccco2)n1-c1ccccc1)NCCc1ccccc1` [2-(5-(furan-2-yl)-4-phenyl-4H-1,2,4-triazol-3-ylthio)-N-phenethylacetamide], the Kinase result was “AKT1”.

In the case of `N#CCSc1nnc(-c2ccco2)n1-c1ccccc1` [2-(5-(furan-2-yl)-4-phenyl-4H-1,2,4-triazol-3-ylthio)acetonitrile], the Kinase result is on record as “CHEK2”.

Regarding `CC(Sc1nnc(COc2ccccc2)n1-c1ccccc1)C(=O)O` (stereo not drawn) [2-(5-(phenoxymethyl)-4-phenyl-4H-1,2,4-triazol-3-ylthio)propanoic acid], the Kinase result was “FYN”.

On to `Cc1ccc(-n2c(SCC(=O)O)nnc2-c2cccnc2)cc1` [2-(5-(pyridin-3-yl)-4-p-tolyl-4H-1,2,4-triazol-3-ylthio)acetic acid], for which the Kinase entry was “AURORA-A”.

With `Cc1ccc(-n2c(SC(C)C(=O)O)nnc2-c2cccnc2)cc1` (stereo not drawn) [2-(5-(pyridin-3-yl)-4-p-tolyl-4H-1,2,4-triazol-3-ylthio)propanoic acid], the Kinase result is reported as “AURORA-A”.

As for `Cc1ccc(-n2c(SCC#N)nnc2-c2ccncc2)cc1` [2-(5-(pyridin-4-yl)-4-p-tolyl-4H-1,2,4-triazol-3-ylthio)acetonitrile], the Kinase entry is given as “AURORA-A; also recorded: GSK3-β; also recorded: GSK3-α”.

For `Cc1ccc(-n2c(SCCO)nnc2-c2ccncc2)cc1` [2-(5-(pyridin-4-yl)-4-p-tolyl-4H-1,2,4-triazol-3-ylthio)ethanol], the “protein kinase against which the compound exhibits inhibitory activity (Table 3)” value is recorded as “GSK3-β; also recorded: GSK3-α”.

As to `O=C(O)CSc1nnc(-c2cccs2)[nH]1` [2-(5-(thiophen-2-yl)-4H-1,2,4-triazol-3-ylthio)acetic acid], the Kinase entry is reported as “DYRK2; also recorded: GSK3-β; also recorded: GSK3-α”.

`N#CCSc1nnc(-c2cccs2)[nH]1` [2-(5-(thiophen-2-yl)-4H-1,2,4-triazol-3-ylthio)acetonitrile]: the Kinase entry is “DYRK2; also recorded: FLT-3; also recorded: AURORA-A”.

On to `OCCSc1nnc(-c2cccs2)[nH]1` [2-(5-(thiophen-2-yl)-4H-1,2,4-triazol-3-ylthio)ethanol], for which the “protein kinase against which the compound exhibits inhibitory activity (Table 3)” value is “DYRK2; also recorded: FLT-3; also recorded: AURORA-A”.

Consider `Cn1c(Cc2ccccc2)nnc1SCC(N)=O` [2-(5-benzyl-4-methyl-4H-1,2,4-triazol-3-ylthio)acetamide], for which the Kinase entry was “HCK”.

With `Cn1c(Cc2ccccc2)nnc1SCC#N` [2-(5-benzyl-4-methyl-4H-1,2,4-triazol-3-ylthio)acetonitrile], the Kinase result is listed as “AURORA-A”.

As for `O=S(=O)(CCSc1nnc(Cc2ccccc2)n1-c1ccccc1)Nc1ccccc1` [2-(5-benzyl-4-phenyl-4H-1,2,4-triazol-3-ylthio)-N-phenylethanesulfonamide], the “protein kinase against which the compound exhibits inhibitory activity (Table 3)” value is “AKT2”.

As to `COc1ccccc1-n1c(SCC(=O)O)nnc1C1CCCCC1` [2-(5-cyclohexyl-4-(2-methoxyphenyl)-4H-1,2,4-triazol-3-ylthio)acetic acid], the Kinase result was “GSK3-β”.

In the case of `CCn1c(SCC(=O)c2ccccc2)nnc1C1CCCCC1` [2-(5-cyclohexyl-4-ethyl-4H-1,2,4-triazol-3-ylthio)-1-phenylethanone], the Kinase entry was “SRC”.

As to `CCn1c(SCC#N)nnc1C1CCCCC1` [2-(5-cyclohexyl-4-ethyl-4H-1,2,4-triazol-3-ylthio)acetonitrile], the Kinase entry was “AURORA-A and MSK1”.

As to `N#CCSc1nnc(C2CCCCC2)n1-c1ccccc1` [2-(5-cyclohexyl-4-phenyl-4H-1,2,4-triazol-3-ylthio)acetonitrile], the Kinase result is “CHEK2”.

As for `N#CCSc1nnc(C2CCCCC2)[nH]1` [2-(5-cyclohexyl-4H-1,2,4-triazol-3-ylthio)acetonitrile], the Kinase entry is given as “GSK3-α”.

Regarding `Cc1cccc(-c2nnc(SCC(N)=O)[nH]2)c1` [2-(5-m-tolyl-4H-1,2,4-triazol-3-ylthio)acetamide], the “protein kinase against which the compound exhibits inhibitory activity (Table 3)” value is reported as “CHEK2; also recorded: AURORA-A; also recorded: FLT-3”.

Consider `Cc1cccc(-c2nnc(SCC(=O)O)[nH]2)c1` [2-(5-m-tolyl-4H-1,2,4-triazol-3-ylthio)acetic acid], for which the Kinase entry is given as “GSK3-β; also recorded: DYRK2; also recorded: AURORA-A”.

Take `Cc1ccc(-n2c(S)nnc2-c2ccccc2O)cc1` [2-(5-mercapto-4-p-tolyl-4H-1,2,4-triazol-3-yl)phenol]: the Kinase result is given as “AURORA-A”.

Turning to `Oc1ccccc1-c1nnc(S)n1CCc1ccccc1` [2-(5-mercapto-4-phenethyl-4H-1,2,4-triazol-3-yl)phenol], the Kinase result is recorded as “CDK2-cyclinE; also recorded: DAPK1”.

Turning to `Cc1nnc(SCC(N)=O)n1-c1ccccc1` [2-(5-methyl-4-phenyl-4H-1,2,4-triazol-3-ylthio)acetamide], the Kinase result is “DYRK2”.

As to `Cc1nnc(SCC(=O)N2c3ccccc3Sc3ccccc32)[nH]1` [2-(5-methyl-4H-1,2,4-triazol-3-ylthio)-1-(10H-phenothiazin-10-yl)ethanone], the Kinase result was “MAPKAPK-2 and CDK2-cyclinE and LCK”.

For `Cc1nnc(SCC(=O)c2ccccc2)[nH]1` [2-(5-methyl-4H-1,2,4-triazol-3-ylthio)-1-phenylethanone], the Kinase entry is on record as “GSK3-α; also recorded: GSK3-β; also recorded: DYRK2”.

`Cc1nnc(SCC(=O)O)[nH]1` [2-(5-methyl-4H-1,2,4-triazol-3-ylthio)acetic acid]: the Kinase result is “GSK3-β; also recorded: GSK3-α”.

In the case of `N#CCSc1nnc(-c2ccccc2)[nH]1` [2-(5-phenyl-4H-1,2,4-triazol-3-ylthio)acetonitrile], the Kinase result was “DYRK2; also recorded: FLT-3; also recorded: AURORA-A”.

`OCCSc1nnc(-c2ccccc2)[nH]1` [2-(5-phenyl-4H-1,2,4-triazol-3-ylthio)ethanol]: the “protein kinase against which the compound exhibits inhibitory activity (Table 3)” value is “FLT-3; also recorded: AURORA-A; also recorded: DYRK2”.

With `CC(C)(C)c1nnc(SCC#N)[nH]1` [2-(5-tert-butyl-4H-1,2,4-triazol-3-ylthio)acetonitrile], the Kinase entry was “DYRK2; also recorded: GSK3-α”.

In the case of `COc1ccc(-c2nnc(SCc3ccccc3C#N)[nH]2)cc1` [2-((5-(4-methoxyphenyl)-4H-1,2,4-triazol-3-ylthio)methyl)benzonitrile], the “protein kinase against which the compound exhibits inhibitory activity (Table 3)” value is “AURORA-A; also recorded: CHEK2; also recorded: GSK3-α”.

Consider `N#Cc1ccccc1CSc1nnc(-c2cccnc2)[nH]1` [2-((5-(pyridin-3-yl)-4H-1,2,4-triazol-3-ylthio)methyl)benzonitrile], for which the “protein kinase against which the compound exhibits inhibitory activity (Table 3)” value was “AURORA-A; also recorded: GSK3-α; also recorded: CHEK2”.

As for `N#Cc1ccccc1CSc1nnc(-c2cccs2)[nH]1` [2-((5-(thiophen-2-yl)-4H-1,2,4-triazol-3-ylthio)methyl)benzonitrile], the “protein kinase against which the compound exhibits inhibitory activity (Table 3)” value is given as “AURORA-A; also recorded: CHEK2; also recorded: GSK3-α”.

For `c1ccc2[nH]c(CSc3nnc(C4CCCC4)[nH]3)nc2c1` [2-((5-cyclopentyl-4H-1,2,4-triazol-3-ylthio)methyl)-1H-benzo[d]imidazole], the “protein kinase against which the compound exhibits inhibitory activity (Table 3)” value was “GSK3-α; also recorded: AURORA-A; also recorded: DYRK2”.

As to `Cc1nnc(SCc2nc3ccccc3[nH]2)[nH]1` [2-((5-methyl-4H-1,2,4-triazol-3-ylthio)methyl)-1H-benzo[d]imidazole], the “protein kinase against which the compound exhibits inhibitory activity (Table 3)” value was “DYRK2; also recorded: FLT-3; also recorded: AURORA-A”.

As for `Cc1nnc(SCc2ccccc2C#N)[nH]1` [2-((5-methyl-4H-1,2,4-triazol-3-ylthio)methyl)benzonitrile], the “protein kinase against which the compound exhibits inhibitory activity (Table 3)” value is on record as “AURORA-A; also recorded: GSK3-β; also recorded: GSK3-α”.

For the compound `N#Cc1ccccc1CSc1nnc(-c2ccccc2)[nH]1` [2-((5-phenyl-4H-1,2,4-triazol-3-ylthio)methyl)benzonitrile], the “protein kinase against which the compound exhibits inhibitory activity (Table 3)” value is given as “AURORA-A; also recorded: CHEK2; also recorded: GSK3-β”.

For the compound `O=C(CSc1nncn1-c1cccnc1)Nc1cccc(C(=O)O)c1` [3-(2-(4-(pyridin-3-yl)-4H-1,2,4-triazol-3-ylthio)acetamido)benzoic acid], the Kinase result is on record as “AURORA-A”.

Turning to `c1csc(-c2nnc(SCCN3CCCC3)[nH]2)c1` [3-(2-(pyrrolidin-1-yl)ethylthio)-5-(thiophen-2-yl)-4H-1,2,4-triazole], the “protein kinase against which the compound exhibits inhibitory activity (Table 3)” value is “GSK3-α; also recorded: GSK3-β; also recorded: DYRK2”.
